Experiment [1] deals with T1, Alpha-1A adrenergic receptor (Rattus norvegicus, UniProt P43140).
T1 sequence (P43140 whole entry): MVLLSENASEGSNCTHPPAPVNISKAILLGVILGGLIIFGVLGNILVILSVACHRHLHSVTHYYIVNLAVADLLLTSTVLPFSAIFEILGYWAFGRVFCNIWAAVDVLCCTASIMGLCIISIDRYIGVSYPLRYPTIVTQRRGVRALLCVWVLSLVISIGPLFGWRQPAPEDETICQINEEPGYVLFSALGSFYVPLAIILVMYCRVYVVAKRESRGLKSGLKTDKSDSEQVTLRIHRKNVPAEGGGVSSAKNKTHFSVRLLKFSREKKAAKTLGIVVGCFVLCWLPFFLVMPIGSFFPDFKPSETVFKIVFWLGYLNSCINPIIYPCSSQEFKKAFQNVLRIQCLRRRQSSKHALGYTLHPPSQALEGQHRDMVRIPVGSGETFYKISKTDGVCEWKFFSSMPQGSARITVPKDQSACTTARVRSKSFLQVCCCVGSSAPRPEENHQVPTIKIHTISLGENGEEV
Kind of experiment: DRUGMATRIX: Alpha-1A adrenergic receptor radioligand binding (ligand: prazosin). The experiment is classed as cell membranes, Wistar, Submaxillary gland, Membrane. To be noted: Not Active = under 50% inhibition at 10 µM; for Ki: read-out: Ki.

Experiment [2] concerns the target T2, Alpha-2A adrenergic receptor (Homo sapiens, UniProt P08913). Also: in other assays of this panel Not Active means under 50% inhibition at 10 µM.
T2 sequence (P08913 whole entry): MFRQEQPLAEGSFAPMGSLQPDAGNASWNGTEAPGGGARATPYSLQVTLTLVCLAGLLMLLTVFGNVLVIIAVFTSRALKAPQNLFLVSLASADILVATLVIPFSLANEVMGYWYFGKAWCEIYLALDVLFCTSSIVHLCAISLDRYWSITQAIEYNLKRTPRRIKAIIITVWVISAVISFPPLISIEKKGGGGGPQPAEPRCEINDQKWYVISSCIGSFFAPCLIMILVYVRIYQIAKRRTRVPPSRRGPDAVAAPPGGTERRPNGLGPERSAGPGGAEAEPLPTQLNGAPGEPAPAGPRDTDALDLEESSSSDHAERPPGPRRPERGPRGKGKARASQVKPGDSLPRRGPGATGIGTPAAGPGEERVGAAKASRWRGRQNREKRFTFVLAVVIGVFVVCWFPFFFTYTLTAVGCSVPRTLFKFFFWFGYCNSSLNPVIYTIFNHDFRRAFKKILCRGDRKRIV
It is filed as cell membranes, Sf9, Membrane.

The target in experiment [3] is Sigma non-opioid intracellular receptor 1 (Homo sapiens, UniProt Q99720). The experiment can be described thus: DRUGMATRIX: Sigma1 radioligand binding (ligand: [3H] Haloperidol). It is filed as cell membranes, Jurkat, Membrane. To be noted: Not Active = under 50% inhibition at 10 µM; for Ki: read-out: Ki.
Sequence of Sigma non-opioid intracellular receptor 1 (Q99720 whole entry): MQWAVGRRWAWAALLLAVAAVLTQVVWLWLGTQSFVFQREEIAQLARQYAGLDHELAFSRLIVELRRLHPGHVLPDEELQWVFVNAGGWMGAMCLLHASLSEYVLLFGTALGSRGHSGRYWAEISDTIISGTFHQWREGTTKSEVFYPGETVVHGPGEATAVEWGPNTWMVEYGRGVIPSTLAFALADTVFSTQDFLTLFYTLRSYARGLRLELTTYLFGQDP
Experiment [4] in a line: DRUGMATRIX: Calcium Channel Type L, Phenylalkylamine radioligand binding (ligand: [3H] (-)-Desmethoxyverapamil (D-888)). To be noted: Not Active = under 50% inhibition at 10 µM. The experiment is classed as cell membranes, Rattus norvegicus, Wistar, Brain, Membrane.
For experiment [5], the target named is T3, C-X-C chemokine receptor type 1 (Homo sapiens, UniProt P25024). Also: in other assays of this panel Not Active means under 50% inhibition at 10 µM.
T3 sequence (P25024 whole entry): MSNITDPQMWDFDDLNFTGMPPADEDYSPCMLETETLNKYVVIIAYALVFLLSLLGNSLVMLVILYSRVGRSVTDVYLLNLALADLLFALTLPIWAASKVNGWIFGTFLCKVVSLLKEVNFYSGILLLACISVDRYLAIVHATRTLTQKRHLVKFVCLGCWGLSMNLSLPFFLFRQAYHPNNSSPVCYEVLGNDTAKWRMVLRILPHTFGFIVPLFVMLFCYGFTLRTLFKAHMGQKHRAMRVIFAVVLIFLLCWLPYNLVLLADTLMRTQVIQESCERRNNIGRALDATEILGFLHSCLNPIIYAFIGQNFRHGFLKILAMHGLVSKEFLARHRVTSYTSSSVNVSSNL

The next experiment deals with T4, Endothelin-1 receptor (Homo sapiens, UniProt P25101).
T4 sequence (P25101 whole entry): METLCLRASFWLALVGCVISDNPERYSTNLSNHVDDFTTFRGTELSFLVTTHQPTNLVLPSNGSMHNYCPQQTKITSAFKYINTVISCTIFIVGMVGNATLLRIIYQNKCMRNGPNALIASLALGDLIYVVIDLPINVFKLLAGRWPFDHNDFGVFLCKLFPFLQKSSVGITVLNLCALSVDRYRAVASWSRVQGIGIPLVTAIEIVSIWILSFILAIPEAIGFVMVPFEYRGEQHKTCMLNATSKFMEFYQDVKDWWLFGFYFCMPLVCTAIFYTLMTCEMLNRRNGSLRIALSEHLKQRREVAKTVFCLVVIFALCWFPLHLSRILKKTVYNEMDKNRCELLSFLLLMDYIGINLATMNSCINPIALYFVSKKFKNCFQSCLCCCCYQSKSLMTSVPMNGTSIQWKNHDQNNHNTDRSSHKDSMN
It is filed as cell membranes, Membrane. To be noted: cho-k1.

The target of experiment [6] is T5, Neuropeptide Y receptor type 2 (Homo sapiens, UniProt P49146). Also: in other assays of this panel Not Active means under 50% inhibition at 10 µM.
T5 sequence (P49146 whole entry): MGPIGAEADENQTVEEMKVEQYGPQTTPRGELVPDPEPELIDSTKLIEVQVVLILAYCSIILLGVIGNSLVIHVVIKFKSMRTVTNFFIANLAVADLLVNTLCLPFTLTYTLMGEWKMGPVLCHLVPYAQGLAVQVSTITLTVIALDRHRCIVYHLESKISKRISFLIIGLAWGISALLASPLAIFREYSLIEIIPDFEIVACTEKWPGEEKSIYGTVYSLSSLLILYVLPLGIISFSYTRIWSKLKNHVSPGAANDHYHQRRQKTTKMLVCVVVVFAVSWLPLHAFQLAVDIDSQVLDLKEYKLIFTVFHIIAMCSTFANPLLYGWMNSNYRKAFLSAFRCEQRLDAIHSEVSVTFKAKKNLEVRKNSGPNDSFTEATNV
It is filed as cell membranes, Membrane. To be noted: kan-ts.

Experiment [7] addresses Receptor tyrosine-protein kinase erbB-2 (Homo sapiens, UniProt P04626). The experiment can be described thus: biochemical. It is filed as cell-based, Insect cells.
Another experiment deals with T6, Adenosine receptor A1 (Homo sapiens, UniProt P30542).
T6 sequence (P30542 whole entry): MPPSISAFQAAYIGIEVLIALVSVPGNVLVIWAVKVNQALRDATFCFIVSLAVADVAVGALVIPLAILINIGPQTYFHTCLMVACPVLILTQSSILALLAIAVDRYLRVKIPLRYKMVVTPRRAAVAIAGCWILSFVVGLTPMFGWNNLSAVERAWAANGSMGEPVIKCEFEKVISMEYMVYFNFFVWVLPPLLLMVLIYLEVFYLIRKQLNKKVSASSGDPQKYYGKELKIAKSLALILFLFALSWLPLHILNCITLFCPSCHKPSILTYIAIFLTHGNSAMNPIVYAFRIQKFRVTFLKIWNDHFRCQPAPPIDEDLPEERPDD
It is filed as cell membranes, CHO, Membrane. To be noted: cho.

Molecules are shown by their SMILES.

Sequence of Receptor tyrosine-protein kinase erbB-2 (P04626 whole entry): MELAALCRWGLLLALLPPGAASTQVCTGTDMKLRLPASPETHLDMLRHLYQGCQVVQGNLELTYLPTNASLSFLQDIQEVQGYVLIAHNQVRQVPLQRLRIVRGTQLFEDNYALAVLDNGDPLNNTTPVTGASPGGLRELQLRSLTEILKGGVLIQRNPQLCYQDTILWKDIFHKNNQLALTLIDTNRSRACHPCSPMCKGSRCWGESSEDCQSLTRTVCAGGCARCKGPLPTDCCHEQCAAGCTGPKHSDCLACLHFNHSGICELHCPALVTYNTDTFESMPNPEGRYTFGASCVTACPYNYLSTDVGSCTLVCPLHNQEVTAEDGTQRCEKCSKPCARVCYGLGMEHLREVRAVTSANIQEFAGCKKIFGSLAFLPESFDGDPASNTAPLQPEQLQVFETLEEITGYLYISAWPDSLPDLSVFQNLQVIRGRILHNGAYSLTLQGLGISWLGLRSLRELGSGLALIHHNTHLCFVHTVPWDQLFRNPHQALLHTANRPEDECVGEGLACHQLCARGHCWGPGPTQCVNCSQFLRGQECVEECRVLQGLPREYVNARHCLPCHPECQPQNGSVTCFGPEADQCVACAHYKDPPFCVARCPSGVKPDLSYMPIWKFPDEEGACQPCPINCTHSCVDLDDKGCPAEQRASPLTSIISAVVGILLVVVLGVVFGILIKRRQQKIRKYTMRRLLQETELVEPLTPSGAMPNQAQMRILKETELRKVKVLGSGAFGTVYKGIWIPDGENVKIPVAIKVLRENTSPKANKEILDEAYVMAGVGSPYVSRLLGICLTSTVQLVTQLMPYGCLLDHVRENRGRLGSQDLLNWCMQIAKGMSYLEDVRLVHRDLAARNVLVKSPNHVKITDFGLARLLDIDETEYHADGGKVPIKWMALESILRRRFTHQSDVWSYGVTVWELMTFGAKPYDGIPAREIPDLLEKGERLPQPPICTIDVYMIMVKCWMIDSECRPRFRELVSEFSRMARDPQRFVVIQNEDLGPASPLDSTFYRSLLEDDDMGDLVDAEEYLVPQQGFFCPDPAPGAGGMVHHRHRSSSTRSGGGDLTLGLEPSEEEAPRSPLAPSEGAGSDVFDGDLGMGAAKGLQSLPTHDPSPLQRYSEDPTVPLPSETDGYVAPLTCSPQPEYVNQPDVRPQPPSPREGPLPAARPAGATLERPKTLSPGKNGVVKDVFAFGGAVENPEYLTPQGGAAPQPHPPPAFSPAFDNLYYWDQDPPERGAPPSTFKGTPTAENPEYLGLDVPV

Regarding `CCOC(=O)[C@H](CCc1ccccc1)N[C@@H](C)C(=O)N1[C@H](C(=O)O)C[C@@H]2CCC[C@@H]21`, the IC50 entry (in experiment [1]; in experiment [2] (sf9); in experiment [3] (jurkat); in experiment [4]; in experiment [5]; against Endothelin-1 receptor) was “Not Active” in each case. Besides, the IC50 result (in experiment [6]; in experiment [7] (insect cells); at Adenosine receptor A1) was “Not Active” each time. In experiment [4], the Ki entry is on record as “Not Active”.

Consider `CC(C)(C)NC(=O)[C@@H]1CN(Cc2cccnc2)CCN1C[C@@H](O)C[C@@H](Cc1ccccc1)C(=O)N[C@H]1c2ccccc2C[C@H]1O.O`, for which the concentration for half-maximal inhibition (IC50) entry (in [1]; in experiment [2] (sf9); in experiment [3] (jurkat); in [4]; in experiment [5]; against Endothelin-1 receptor) was “Not Active” each time. Also, the IC50 result (in experiment [6]; in experiment [7] (insect cells); at Adenosine receptor A1) was “Not Active” each time. For the same compound, the Ki entry in experiment [4] is recorded as “Not Active”.

For `COc1ccc(CCN2CCC(Nc3nc4ccccc4n3Cc3ccc(F)cc3)CC2)cc1` [ASTEMIZOLE], the IC50 was 24 nM in experiment [1] (read-out: IC50); “Not Active” in [5]; “Not Active” on Endothelin-1 receptor; “Not Active” in [6]; 13100 nM in [7] (read-out: IC50); “Not Active” against Adenosine receptor A1. Besides, the Ki in experiment [1] was determined as 9.9 nM.

With `CN(C)CCCN1c2ccccc2CCc2ccc(Cl)cc21` [CLOMIPRAMINE], the half-inhibitory concentration (IC50) in [2] (read-out: IC50) was 1410 nM; in experiment [3] (read-out: IC50), 1360 nM; in experiment [5] it was “Not Active”; against Endothelin-1 receptor, “Not Active”; in experiment [6] it was “Not Active”; in experiment [7] (insect cells), “Not Active”. On Adenosine receptor A1, the IC50 entry is given as “Not Active”. Also, the Ki in [3] stood at 572 nM.

For `Clc1ccccc1C(c1ccccc1)(c1ccccc1)n1ccnc1` [CLOTRIMAZOLE], the IC50 in [1] (read-out: IC50) is 26300 nM; in experiment [3] (jurkat) it was “Not Active”; in [5] it was “Not Active”; against Endothelin-1 receptor, “Not Active”; in [6], “Not Active”; in experiment [7] (read-out: IC50), 66400 nM. In experiment [1], the Ki was 10700 nM.

Turning to `O=C(CCCN1CCC(O)(c2ccc(Cl)cc2)CC1)c1ccc(F)cc1` [HALOPERIDOL], the IC50 result (in [5]; against Endothelin-1 receptor; in experiment [6]; in experiment [7] (insect cells); at Adenosine receptor A1) was “Not Active” each time.

With `CN1CCN2c3ccccc3Cc3ccccc3C2C1` (centres undefined) [MIANSERIN], the IC50 result (in experiment [3] (jurkat); in experiment [5]; at Endothelin-1 receptor; in experiment [6]; in experiment [7] (insect cells); against Adenosine receptor A1) was “Not Active” throughout.

As to `CC(C)(O)c1ccccc1CC[C@@H](SCC1(CC(=O)O)CC1)c1cccc(/C=C/c2ccc3ccc(Cl)cc3n2)c1` [MONTELUKAST], the 50% inhibitory concentration (IC50) result (in experiment [1]; in experiment [3] (jurkat); in [5]; on Endothelin-1 receptor; in experiment [6]; in experiment [7] (insect cells)) was “Not Active” in each case. Further, the half-maximal inhibitory concentration (IC50) entry on Adenosine receptor A1 is listed as “Not Active”.

On to `CC(=O)[C@H]1CC[C@H]2[C@@H]3CCC4=CC(=O)CC[C@]4(C)[C@H]3CC[C@]12C` [PROGESTERONE], for which the half-maximal inhibitory concentration (IC50) result (in experiment [1]; in experiment [2] (sf9); in [4]; in experiment [5]; at Endothelin-1 receptor; in [6]) was “Not Active” throughout. The half-maximal inhibitory concentration (IC50) entry (in experiment [7] (insect cells); against Adenosine receptor A1) was “Not Active” throughout. Also, in [4], the Ki entry is “Not Active”.

Consider `CSc1ccc2c(c1)N(CCC1CCCCN1C)c1ccccc1S2` (centres undefined) [THIORIDAZINE], for which the 50% inhibitory concentration (IC50) was 5.09 nM in experiment [1] (read-out: IC50); 363 nM in experiment [3] (read-out: IC50); “Not Active” in experiment [5]; “Not Active” at Endothelin-1 receptor; “Not Active” in experiment [6]; “Not Active” in experiment [7] (insect cells). Besides, the IC50 result at Adenosine receptor A1 is on record as “Not Active”. Moreover, the results for the Ki in experiment [1] and in experiment [3] were 2.06 nM and 153 nM, respectively.

As for `COc1cccc(C2(O)CCCCC2CN(C)C)c1` (centres undefined) [TRAMADOL], the IC50 result (in experiment [1]; in experiment [2] (sf9); in [3] (jurkat); in experiment [5]; at Endothelin-1 receptor; in experiment [6]) was “Not Active” in each case. Further, the IC50 entry (in [7] (insect cells); at Adenosine receptor A1) was “Not Active” throughout.

Consider `COC(=O)[C@@H]1[C@H]2C[C@H]3c4[nH]c5ccccc5c4CCN3C[C@@H]2CC[C@@H]1O` [YOHIMBINE], for which the IC50 result (in [3] (jurkat); in experiment [4]; in experiment [5]; on Endothelin-1 receptor; in [6]; in experiment [7] (insect cells)) was “Not Active” each time. In addition, the IC50 entry on Adenosine receptor A1 is listed as “Not Active”. Moreover, in [4], the Ki result was “Not Active”.

The IC50 is the concentration that gives 50% inhibition. As a reminder, the Ki is the equilibrium dissociation constant of an inhibitor or competing ligand from its target.

The values are drawn from ChEMBL document CHEMBL1909046, “DrugMatrix in vitro pharmacology data”.
